{"source": "patent US20080206322A1", "about": "“Pharmaceutical Multiparticulate Composit Ion Comprising Mycophenolic Acid or Myco Phenolate Sodium and Combination Compositions with Rapamycin” (NOVARTIS AG, priority 2004, published 2008)", "test": "Solubility in acidic medium", "assay_type": "physicochemical", "note": "Read-outs that look alike come from different tables or passages of the source."}
{"compound": "COc1c(C)c2c(c(O)c1C/C=C(\\C)CCC(=O)O)C(=O)OC2", "note": "[mycophenolic acid]", "values": [{"measurement": "solubility in acidic medium", "result": "low solubility"}, {"measurement": "solubility in acidic medium", "setting": "listed as MPA", "result": "poor solubility"}]}
